What was measured:
Format in all cases: cell-based
Conditions in all cases: 50 μg/ml
[1] = tested on: U-937 human histocytic lymphoma; experiment: In vitro inhibition rate to tumor cells (MTT), U-937
Experimental: (§1) (1) Single cell suspension was seeded into 96-well plates (×3) (the cells was diluted in the PRMI-1640 minimum medium to 3×10^4 cells/ml, […] diluted cells/well). […] The experiments were performed in quadruplicate.
(§2) (2) The medium was removed. Solutions of the anti-tumor agents (15 compounds) were prepared in a freshly prepared medium at the concentrations indicated in the following Table. […] of the solution was added into each well. Incubation was continued for 48 hours.
(§3) (3) […] of 2 mg/ml MTT was added into each well, and incubated for 4 hours.
(§4) (4) The medium was removed from the well. The microplates were swiftly turned down to throw-off the medium. […] DMSO was added into each well, and vortexed at room temperature for 10 minutes.
(§5) (5) OD value (λ=570 nm) was measured with an Enzyme-Linked Detector.
(§6) (6) The inhibition rates (IR) of cell growth were respectively calculated based on the following equation: IR(%)=[1−(average OD of the experimental group/average OD of the control group)]×100%

[2] = tested on: HL-60 human promyelocytic leukemia; experiment: In vitro inhibition rate to tumor cells (MTT), HL-60
Experimental: as §1, §2, §3, §4, §5, §6

[3] = tested on: A-549 human lung adenocarcinoma; experiment: In vitro inhibition rate to tumor cells (MTT), A-549
Experimental: as §1, §2, §3, §4, §5, §6

[4] = tested on: Bel-7402 human hepatic carcinoma; experiment: In vitro inhibition rate to tumor cells (MTT), Bel-7402
Experimental: as §1, §2, §3, §4, §5, §6

[5] = tested on: SMMC-7721 human hepatic carcinoma; experiment: In vitro inhibition rate to tumor cells (MTT), SMMC-7721
Experimental: as §1, §2, §3, §4, §5, §6

[6] = tested on: MCF-7 human mammary adenocarcinoma; experiment: In vitro inhibition rate to tumor cells (MTT), MCF-7
Experimental: as §1, §2, §3, §4, §5, §6

[7] = tested on: LLC mouse Lewis lung carcinoma; experiment: In vitro inhibition rate to tumor cells (MTT), LLC
Experimental: as §1, §2, §3, §4, §5, §6

[8] = tested on: Hela human cervical carcinoma; experiment: In vitro inhibition rate to tumor cells (MTT), Hela
Experimental: as §1, §2, §3, §4, §5, §6

SMILES | inhibition rate, Results (%) U-937 ([1]; Table 1) | inhibition rate, Results (%) U-937 ([1]; Table 2 (repeated screening)) | inhibition rate, Results (%) HL-60 ([2]; Table 1) | inhibition rate, Results (%) HL-60 ([2]; Table 2 (repeated screening)) | inhibition rate, Results (%) A-549 ([3]; Table 1) | inhibition rate, Results (%) A-549 ([3]; Table 2 (repeated screening)) | inhibition rate, Results (%) Bel-7402 ([4]; Table 1) | inhibition rate, Results (%) Bel-7402 ([4]; Table 2 (repeated screening)) | inhibition rate, Results (%) SMMC-7721 ([5]; Table 1) | inhibition rate, Results (%) SMMC-7721 ([5]; Table 2 (repeated screening)) | inhibition rate, Results (%) MCF-7 ([6]; Table 1) | inhibition rate, Results (%) MCF-7 ([6]; Table 2 (repeated screening)) | inhibition rate, Results (%) LLC ([7]; Table 1) | inhibition rate, Results (%) LLC ([7]; Table 2 (repeated screening)) | inhibition rate, Results (%) Hela ([8]; Table 1) | inhibition rate, Results (%) Hela ([8]; Table 2 (repeated screening))
C=C1CC2(OC(C)=O)OC3(CC2C(C)C)C(C)CCC13 (centres unmarked) [Compound 1, Curcumol acetate] | 45.45% | 34.26% | 23.12% | 12.03% | −9.16% | −6.32% | 32.12% | 25.32% | 23.10% | 28.23% | 45.6% | 41.02% | 1.30% | 1.30% | 51.23% | 55.98%
CC(C)C1CC23OC1(O)CC(=CO)C2CCC3C (centres unmarked) [Compound 18, Curcumol monohydroxy compound] | 70.30% | 69.23% | 4.26% | 7.32% | −2.24% | −0.32% | 13.58% | 11.23% | 13.39% | 0.69% | 57.89% | 54.32% | 4.18% | 0.22% | 60.32% | 65.03%
C=CC(=O)OC12CC(=C)C3CCC(C)C3(CC1C(C)C)O2 (centres unmarked) [Compound 22, Curcumol acrylate] | 60.32% | 50.23% | 21.01% | 21.03% | 19.23% | 12.36% | 12.80% | 0.23% | 44.39% | 40.32% | 88.32% | 85.02% | −6.01% | −6.41% | 63.20% | 61.88%
COC12CC(=CBr)C3CCC(C)C3(CC1C(C)C)O2 (centres unmarked) [Compound 26, Curcumol methyl ether bromide] | 55.32% | 54.23% | −0.23% | −0.23% | −3.24% | −3.12% | 3.45% | −3.45% | 0.97% | −0.97% | 43.21% | 41.21% | 11.77% | −11.77% | 51.00% | 56.55%
CCCCNC=C1CC2(OC)OC3(CC2C(C)C)C(C)CCC13 (centres unmarked) [Compound 27, Curcumol methyl ether n-butyl amine] | 52.98% | 50.98% | 3.19% | 5.969% | 15.01% | 5.23% | 4.65% | 2.31% | 25.94% | 20.36% | 23.78% | 14.36% | −10.89% | −10.00% | 62.31% | 60.21%
CCCCNC=C1CC2(OC)OC3(CC2C(C)C)C(C)CCC13.Cl (centres unmarked) [Compound 28, Curcumol methyl ether n-butyl amine hydrochloride] | 59.32% | 51.23% | 2.98% | 4.32% | 1.23% | 2.31% | −2.24% | −0.45% | −3.78% | −1.02% | 32.15% | 19.98% | 0.24% | 1.23% | 58.75% | 60.45%
CCOC12CC(=CO[N+](=O)[O-])C3CCC(C)C3(CC1C(C)C)O2 (centres unmarked) [Compound 29, Curcumol ethyl ether nitrate] | 25.32% | 12.32% | 42.12% | 42.79% | 3.89% | 1.23% | 2.51% | 3.21% | 4.26% | 5.68% | 37.85% | 30.12% | −10.12% | −1.95% | 56.98% | 50.17%
CC(C)C1CC23OC1(O)CC(Br)(CBr)C2CCC3C (centres unmarked) [Compound 30, Curcumol dibromide] | 13.25% | 13.10% | 13.20% | 4.12% | 4.36% | 4.01% | 12.40% | 9.84% | 1.03% | 4.56% | 36.15% | 30.56% | −1.83% | −4.65% | 53.87% | 56.89%
CC(C)C1CC23OC1(O)CC(CO[N+](=O)[O-])(O[N+](=O)[O-])C2CCC3C (centres unmarked) [Compound 31, Curcumol dinitrate] | −0.68% | −12.61% | 16.50% | 2.78% | 8.65% | 4.82% | 0.23% | 8.42% | −1.96% | −4.56% | 16.75% | 14.87% | 1.13% | 1.25% | 57.98% | 55.49%
CC(C)C1CC23OC1(O)CC(C)(Br)C2CCC3C (centres unmarked) [Compound 34, Curcumol monobromide without double bond] | 35.23% | 23.56% | 2.96% | 3.14% | 2.31% | 9.23% | 1.11% | 0.59% | −5.25% | 0.95% | 1.23% | 4.56% | −18.52% | −11.22% | 50.64% | 51.89%
CC(C)C1CC23OC1(O)CC(C)(O)C2CCC3C (centres unmarked) [Compound 35, Curcumol monohydroxy compound without double bond] | 7.36% | 0.23% | 3.12% | 3.99% | 3.89% | 2.77% | 3.65% | 6.78% | 5.23% | 4.32% | 3.89% | 9.87% | 8.97% | 8.23% | 59.88% | 64.01%
